According to patent US20090062273A1, “3-H-pyrazolopyridines and salts thereof, pharmaceutical compositions comprising same, methods of preparing same and uses of same” (priority 2006, published 2009):

Molecular target: T1, human insuline receptor (Ins-R) (Homo sapiens, UniProt P06213)
T1 construct: GST-tagged recombinant kinase domain of the human insuline receptor; GST; purchased ProQinase, Freiburg, Germany; host or cells: SF-9 cells
Assay: InsR HTRF assay (selectivity vs. Tie2 assay 2)
Format: biochemical
Settings: IC50 assay 4/IC50 assay 2
Protocol: Inhibitory activity of compounds against the kinase activity of the insulin receptor was quantified employing the Ins-R HTRF assay as described in the following paragraphs.
GST-tagged recombinant kinase domain of the human insuline receptor (Ins-R, purchase from ProQinase, Freiburg, Germany) expressed in SF-9 cells was used as kinase. As substrate for the kinase reaction biotinylated poly-(Glu,Tyr) (Cis biointernational, France) was used.
Ins-R was incubated for 20 min at 22° C. in the presence of different concentrations of test compounds in 5 μl assay buffer [50 mM Hepes/NaOH pH 7, 15 mM MnCl2, 1 mM dithiothreitol, 0.1 μM sodium ortho-vanadate, 0.015% (v/v) PEG20000, 10 μM adenosine-tri-phosphate (ATP), 0.3 μg/ml substrate, 1% (v/v) dimethylsulfoxide]. The concentration of Ins-R was adjusted depending of the activity of the enzyme lot and was chosen appropriate to have the assay in the linear range, typical concentrations were in the range of 10 pg/μL. The reaction was stopped by the addition of 5 μl of a solution of HTRF detection reagents (0.1 μM streptavidine-XLent and 1 nM PT66-Eu-Chelate, an europium-chelate labelled anti-phospho-tyrosine antibody from Perkin Elmer) in an aqueous EDTA-solution (80 mM EDTA, 0.2% (w/v) bovine serum albumin in 50 mM HEPES/NaOH pH 7.0).
The resulting mixture was incubated 1 h at 22° C. to allow the binding of the biotinylated phosphorylated peptide to the streptavidine-XLent and the PT66-Eu-Chelate. Subsequently the amount of phosphorylated substrate was evaluated by measurement of the resonance energy transfer from the PT66-Eu-Chelate to the streptavidine-XLent. Therefore, the fluorescence emissions at 620 nm and 665 nm after excitation at 350 nm was measured in a HTRF reader, e.g. a Rubystar (BMG Labtechnologies, Offenburg, Germany) or a ViewLux (Perkin-Elmer). The ratio of the emissions at 665 nm and at […] was taken as the measure for the amount of phosphorylated substrate. The data were normalised (enzyme reaction without inhibitor=0% inhibition, all other assay components but no enzyme=100% inhibition) and IC50 values were calculated by a 4 parameter fit using an inhouse software.

T1 sequence (P06213 1023-1298 limits assumed): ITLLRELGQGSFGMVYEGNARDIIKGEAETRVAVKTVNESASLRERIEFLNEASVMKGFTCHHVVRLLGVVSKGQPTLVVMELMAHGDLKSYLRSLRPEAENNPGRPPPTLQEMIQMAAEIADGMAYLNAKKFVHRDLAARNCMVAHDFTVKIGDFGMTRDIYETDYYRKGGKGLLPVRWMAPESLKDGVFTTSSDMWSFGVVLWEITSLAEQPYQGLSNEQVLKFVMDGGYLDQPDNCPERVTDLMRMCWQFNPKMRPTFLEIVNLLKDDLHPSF

Selectivity vs. InsR, >50fold:
CN(C)CCN(C)c1ccc(C(F)(F)F)cc1NC(=O)Nc1ccc(-c2cncc3c2cnn3C)cc1 [Example 13.13, 1-{2-[(2-Dimethylamino-ethyl)-methyl-amino]-5-trifluoromethyl-phenyl}-3-[4-(1-methyl-1H-pyrazolo[3,4-c]pyridin-4-yl)-phenyl]-urea]
Cn1nc(C(C)(C)C)cc1NC(=O)Nc1ccc(-c2cncc3c2cnn3C)cc1 [Example 14.3, 1-(5-tert-Butyl-2-methyl-2H-pyrazol-3-yl)-3-[4-(1-methyl-1H-pyrazolo[3,4-c]pyridin-4-yl)-phenyl]-urea]
Cn1ncc2c(-c3ccc(NC(=O)Nc4cc(C(F)(F)F)ccn4)c(F)c3)cncc21 [Example 14.5, 1-[2-Fluoro-4-(1-methyl-1H-pyrazolo[3,4-c]pyridin-4-yl)-phenyl]-3-(4-trifluoromethyl-pyridin-2-yl)-urea]
CC(C)c1cc(NC(=O)Nc2ccc(-c3cncc4c3cnn4C)cc2)n(-c2cccc(F)c2)n1 [Example 15.1, 1-[2-(3-Fluoro-phenyl)-5-isopropyl-2H-pyrazol-3-yl]-3-[4-(1-methyl-1H-pyrazolo[3,4-c]pyridin-4-yl)-phenyl]-urea]
CC(C)c1cc(NC(=O)Nc2ccc(-c3cncc4c3cnn4C)cc2F)n(-c2cccc(F)c2)n1 [Example 15.2, 1-[2-Fluoro-4-(1-methyl-1H-pyrazolo[3,4-c]pyridin-4-yl)-phenyl]-3-[2-(3-fluoro-phenyl)-5-isopropyl-2H-pyrazol-3-yl]-urea]
COc1cccc(-n2nc(C(C)(C)C)cc2NC(=O)Nc2ccc(-c3cncc4c3cnn4C)cc2)c1 [Example 15.5, 1-[5-tert-Butyl-2-(3-methoxy-phenyl)-2H-pyrazol-3-yl]-3-[4-(1-methyl-1H-pyrazolo[3,4-c]pyridin-4-yl)-phenyl]-urea]
Cn1ncc2c(-c3ccc(NC(=O)Nc4cc(C(C)(C)C)nn4-c4ccc(F)cc4)cc3)cncc21 [Example 15.7, 1-[5-tert-Butyl-2-(4-fluoro-phenyl)-2H-pyrazol-3-yl]-3-[4-(1-methyl-1H-pyrazolo[3,4-c]pyridin-4-yl)-phenyl]-urea]
Cn1ncc2c(-c3ccc(NC(=O)Nc4cc(C(C)(C)C)nn4-c4ccncc4)cc3)cncc21 [Example 15.10, 1-(5-tert-Butyl-2-pyridin-4-yl-2H-pyrazol-3-yl)-3-[4-(1-methyl-1H-pyrazolo[3,4-c]pyridin-4-yl)-phenyl]-urea]
Cn1ncc2c(-c3ccc(NC(=O)Nc4cc(C(C)(C)C)nn4-c4cncc(F)c4)cc3)cncc21 [Example 15.12, 1-[5-tert-Butyl-2-(5-fluoro-pyridin-3-yl)-2H-pyrazol-3-yl]-3-[4-(1-methyl-1H-pyrazolo[3,4-c]pyridin-4-yl)-phenyl]-urea]
Cn1ncc2c(-c3ccc(NC(=O)Nc4cc(C(C)(C)C)nn4-c4cncc(F)c4)c(F)c3)cncc21 [Example 15.13, 1-[5-tert-Butyl-2-(5-fluoro-pyridin-3-yl)-2H-pyrazol-3-yl]-3-[2-fluoro-4-(1-methyl-1H-pyrazolo[3,4-c]pyridin-4-yl)-phenyl]-urea]
